Data taken from PMC9646721, “Alkaloid binding to opium poppy major latex proteins triggers structural modification and functional aggregation” (Nature Communications, 2022).
Values after ≈ are worked out from the molar mass of the structure shown. Values joined by “and” are separate entries in the source; they are usually repeats but may differ in a detail not shown here. Equal entries are not always repeated.

Legend:
NISO [1] = biological target: T1, NISO (Papaver somniferum, UniProt P0DYP9); experiment: ANS displacement assay; settings: for IC50: IC50, NISO; for IC50 / Log10IC50: 10 µM protein and 10 µM ANS, CBS pH 5.5; for Log10IC50 / Hill Slope: NISO; for Hill Slope: ANS displacement dose-response fit
T1 sequence (P0DYP9 entry or part of it): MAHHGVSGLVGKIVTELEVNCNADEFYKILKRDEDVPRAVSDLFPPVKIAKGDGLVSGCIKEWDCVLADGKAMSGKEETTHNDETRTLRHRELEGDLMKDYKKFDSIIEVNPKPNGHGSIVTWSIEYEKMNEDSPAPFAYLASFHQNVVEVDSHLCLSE
Procedure: (§5) 8-anilino-1-naphthalenesulfonic acid (ANS) fluorescence binding curves and the binding-induced reduction in ANS fluorescence resulting from competition with tested ligands across a range of concentration facilitated the measurement of IC50 and an estimate of Kd values using the binding models and procedures described previously[70]. […] ANS was dissolved in dimethylsufoxide at a concentration of 20 mM, stored at −20 °C until dilution and protected from exposure to light. […] 40 µl of the ANS solution and 40 µl of each MLP/PR10 protein solution were combined to 80 µl final reaction volumes, which were incubated at 21 °C for 10 min to allow equilibration of binding. Triplicate 18-µl aliquots were withdrawn from each 80 µl reaction, transferred to optically clear PCR tubes (Diamed, Canada) and ANS fluorescence was measured following an additional 3-min incubation at 30 °C using a Qiagen Rotor-gene Q 6-plex with excitation and emission filters of 365 ± 20 nm and 460 ± 20 nm, respectively. An identical reaction series whereby protein was omitted from the mixtures was measured under identical conditions and trace fluorescence was subtracted from each MLP/PR10 protein-containing sample. Each data set was scaled so that the maximum observed fluorescence corresponded to 100% and individual data points were plotted, and a rectangular hyperbolic ligand binding function was fit, using least-squares analysis (Prism 5 software, Graphpad, USA). Experiments were repeated at least twice with independently prepared protein.
(§6) Displacement of ANS is associated with reduced fluorescence. […] Briefly, 40 µl of 20 µM ANS and individual MLP/ PR10 protein solutions were combined in CBS buffer, pH 5.5, incubated at 21 °C for 5 min, mixed with 40 µl of separate 0 to 6 mM BIA solutions in CBS buffer, pH 5.5, and the 80 µl reactions were subsequently incubated for 10 min at 21 °C. Fluorescence was measured as described above, including subtraction of any fluorescence in a blank series whereby protein was omitted. […] Each experiment was repeated at least twice with independently prepared MLP/PR10 proteins and BIA ligand.

THS2 [2] = biological target: T2, THS2 (Papaver somniferum, UniProt A0A2U9GGW3); experiment: ANS displacement assay
T2 sequence (A0A2U9GGW3 whole entry): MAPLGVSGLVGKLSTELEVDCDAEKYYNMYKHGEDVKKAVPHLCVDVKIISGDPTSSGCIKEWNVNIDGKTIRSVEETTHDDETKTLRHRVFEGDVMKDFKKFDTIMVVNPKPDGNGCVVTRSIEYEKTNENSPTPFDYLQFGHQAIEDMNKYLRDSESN
Procedure: as §5, §6

MLP2 = experiment: ANS displacement assay; format: binding, Papaver somniferum; settings: for IC50 / Log10IC50: 10 µM protein and 10 µM ANS, CBS pH 5.5; for Kd: from average IC50 and PR10-ANS Kd, competitive inhibition assumed, read-out: Estimated Kd
From the text: (§1) Eluates were store separately on ice.
(§2) Displacement of ANS is associated with reduced fluorescence.

PR10-4 = experiment: ANS displacement assay; format: binding, Papaver somniferum; settings: for IC50 / Log10IC50: 10 µM protein and 10 µM ANS, CBS pH 5.5; for Kd: from average IC50 and PR10-ANS Kd, competitive inhibition assumed, read-out: Estimated Kd
From the text: as §1, §2

PR10-12 [3] = experiment: ANS displacement assay; format: binding, Papaver somniferum; settings: for IC50 / Log10IC50: 10 µM protein and 10 µM ANS, CBS pH 5.5; for Kd: from average IC50 and PR10-ANS Kd, competitive inhibition assumed, read-out: Estimated Kd
From the text: as §1, §2

MLP15 [4] = biological target: T3, MLP15 (Papaver somniferum, UniProt P19825); experiment: ANS displacement assay; settings: for IC50: IC50, MLP15; for IC50 / Log10IC50: 10 µM protein and 10 µM ANS, CBS pH 5.5; for Log10IC50 / Hill Slope: MLP15; for Hill Slope: ANS displacement dose-response fit
T3 sequence (P19825 1-159): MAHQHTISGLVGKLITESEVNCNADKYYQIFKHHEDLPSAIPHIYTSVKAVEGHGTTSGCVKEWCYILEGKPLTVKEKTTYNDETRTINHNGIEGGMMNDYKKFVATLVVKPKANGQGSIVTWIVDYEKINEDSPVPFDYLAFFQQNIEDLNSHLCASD
Procedure: as §5, §6

MLP15 [5] = biological target: T3, MLP15; experiment: Isothermal titration calorimetry; format: binding; set-up: made in house; host or cells: E. coli ArcticExpress (DE3); settings: ITC thermogram, injections into buffer and MLP15
Procedure: ITC experiments were conducted using a Microcal VP instrument (Malvern Pananalytical, Malvern, UK). […] Dialysis was carried out in boiled Spectra/Por 1 6–8 kDa MWCO 0.32 ml/cm (Spectrum Labs, USA) tubing thoroughly washed with either buffer before use. The second 1000-fold volume of dialysis buffer was filtered and degassed using a reusable bottle-top filtration apparatus (Nalgene, USA) with disposable […] cellulose filters (VWR, Canada) prior to storage at 4 °C. Ligands were dissolved in the filtered dialysis buffer at 21 °C for approximately one hour, and any insoluble material was removed by repeated centrifugation at 21,000 × g for 10 min. […] Prior to ITC, which was initiated immediately following dialysis, the protein solutions were centrifuged at 17,000 × g and 4 °C for 30 min. Any precipitate was separated from the remaining soluble protein fraction which was quantified by absorption at A280nm and diluted with filtered dialysis buffer immediately before use.
(§3) Thermograms were recorded at 25 °C, with a reference power of 10 (dpu/sec) and monitoring of 30 injections of 9 µl BIA ligand solutions into a sample cell containing 1.4 ml of an MLP/PR10 protein solution, with 300 seconds between injections. […] To ensure that we report only the heat of reaction for each interaction, independent titrations of ligand into buffer, and buffer into protein solutions, were used to calculate and then subtract heats of dilution. After subtraction, binding isotherms were analyzed in MicroCal Origin 7 (MicroCal, USA) by fitting a single-site binding model using non-linear least squares regression analysis repeated until convergence. […] Each ITC experiment was repeated 2 to 4 times.

[6] = Ligand solubility threshold in ITC buffer; format: physicochemical; settings: filtered dialysis buffer (CBS, 21 °C, aqueous buffer, thermodynamic from solid); pH 5.5, ITC buffer
Procedure: ITC experiments were conducted using a Microcal VP instrument (Malvern Pananalytical, Malvern, UK). Recombinant MLP/PR10 protein preparation involving production in Escherichia coli followed by cobalt-affinity chromatography was optimized to yield relatively high purity in a single step as determined by SDS-PAGE and colloidal Coomassie blue silver staining. The less than 48 h decrease in atmospheric oxygen exposure generated high-quality proteins with reduced precipitate. […] Eluates were twice dialysed to equilibrium (i.e., 10–12 h at 4 °C) against a 1000-fold (2–4 L) volume of PBS, pH 7.4 (25 mM sodium phosphate, 50 mM NaCl) or CBS, pH 5.5, resulting in a theoretical million-fold dilution of undesired small molecules (e.g., <0.2 µM imidazole). […] Any precipitate was separated from the remaining soluble protein fraction which was quantified by absorption at A280nm and diluted with filtered dialysis buffer immediately before use.
Thermograms were recorded at 25 °C, with a reference power of 10 (dpu/sec) and monitoring of 30 injections of 9 µl BIA ligand solutions into a sample cell containing 1.4 ml of an MLP/PR10 protein solution, with 300 seconds between injections. […] After subtraction, binding isotherms were analyzed in MicroCal Origin 7 (MicroCal, USA) by fitting a single-site binding model using non-linear least squares regression analysis repeated until convergence. […]

PR10-10 = biological target: T4, PR10-10 (Papaver somniferum, UniProt A0A9Y2YA81); experiment: ANS displacement assay; format: binding; settings: ANS displacement dose-response fit
T4 sequence (A0A9Y2YA81 1-158): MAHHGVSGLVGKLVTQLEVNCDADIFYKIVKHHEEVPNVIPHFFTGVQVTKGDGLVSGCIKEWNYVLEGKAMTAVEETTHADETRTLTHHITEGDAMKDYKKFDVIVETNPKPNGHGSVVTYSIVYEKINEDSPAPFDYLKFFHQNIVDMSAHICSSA
From the text: as §1, §2

THS2 [7] = biological target: T2, THS2; experiment: Isothermal titration calorimetry; format: binding; set-up: made in house; host or cells: E. coli ArcticExpress (DE3); settings: ITC, PBS pH 7.4, 25 °C; for N / Kd: single-site model
Procedure: (§4) ITC experiments were conducted using a Microcal VP instrument (Malvern Pananalytical, Malvern, UK). […] Eluates were twice dialysed to equilibrium (i.e., 10–12 h at 4 °C) against a 1000-fold (2–4 L) volume of PBS, pH 7.4 (25 mM sodium phosphate, 50 mM NaCl) or CBS, pH 5.5, resulting in a theoretical million-fold dilution of undesired small molecules (e.g., <0.2 µM imidazole). Dialysis was carried out in boiled Spectra/Por 1 6–8 kDa MWCO 0.32 ml/cm (Spectrum Labs, USA) tubing thoroughly washed with either buffer before use. The second 1000-fold volume of dialysis buffer was filtered and degassed using a reusable bottle-top filtration apparatus (Nalgene, USA) with disposable […] cellulose filters (VWR, Canada) prior to storage at 4 °C. Ligands were dissolved in the filtered dialysis buffer at 21 °C for approximately one hour, and any insoluble material was removed by repeated centrifugation at 21,000 × g for 10 min. […] Prior to ITC, which was initiated immediately following dialysis, the protein solutions were centrifuged at 17,000 × g and 4 °C for 30 min. Any precipitate was separated from the remaining soluble protein fraction which was quantified by absorption at A280nm and diluted with filtered dialysis buffer immediately before use.
as §3

NISO [8] = biological target: T1, NISO; experiment: Isothermal titration calorimetry; format: binding; set-up: made in house; host or cells: E. coli ArcticExpress (DE3); settings: ITC, PBS pH 7.4, 25 °C; for N / Kd: single-site model
Procedure: as §4, §3

PR10-12 [9] = experiment: Isothermal titration calorimetry; format: binding, Papaver somniferum; settings: ITC, PBS pH 7.4, 25 °C, single-site model
Procedure: ITC experiments were conducted using a Microcal VP instrument (Malvern Pananalytical, Malvern, UK). Recombinant MLP/PR10 protein preparation involving production in Escherichia coli followed by cobalt-affinity chromatography was optimized to yield relatively high purity in a single step as determined by SDS-PAGE and colloidal Coomassie blue silver staining. The less than 48 h decrease in atmospheric oxygen exposure generated high-quality proteins with reduced precipitate. […] Eluates were twice dialysed to equilibrium (i.e., 10–12 h at 4 °C) against a 1000-fold (2–4 L) volume of PBS, pH 7.4 (25 mM sodium phosphate, 50 mM NaCl) or CBS, pH 5.5, resulting in a theoretical million-fold dilution of undesired small molecules (e.g., <0.2 µM imidazole). Dialysis was carried out in boiled Spectra/Por 1 6–8 kDa MWCO 0.32 ml/cm (Spectrum Labs, USA) tubing thoroughly washed with either buffer before use. The second 1000-fold volume of dialysis buffer was filtered and degassed using a reusable bottle-top filtration apparatus (Nalgene, USA) with disposable […] cellulose filters (VWR, Canada) prior to storage at 4 °C. Ligands were dissolved in the filtered dialysis buffer at 21 °C for approximately one hour, and any insoluble material was removed by repeated centrifugation at 21,000 × g for 10 min. No change in pH occurred following substrate addition. Prior to ITC, which was initiated immediately following dialysis, the protein solutions were centrifuged at 17,000 × g and 4 °C for 30 min. Any precipitate was separated from the remaining soluble protein fraction which was quantified by absorption at A280nm and diluted with filtered dialysis buffer immediately before use.
as §3, with “injections. Protein concentrations varied from 10 to 150 µM to achieve an optimal C value and curve shape valid for parameter calculation.” for “injections.”

| Structure (SMILES) | Kd (NISO [1]) [µM] | IC50 (NISO [1]) | Log10IC50 (NISO [1]) | Hill Slope (NISO [1]) | IC50 (MLP2) [µM] | Log10IC50 (MLP2) | Kd (MLP2) [µM] | IC50 (PR10-4) [µM] | Log10IC50 (PR10-4) | Kd (PR10-4) [µM] | IC50 (PR10-12 [3]) [µM] | Log10IC50 (PR10-12 [3]) | Kd (PR10-12 [3]) [µM] | Kd (MLP15 [4]) [µM] | IC50 (MLP15 [4]) | Log10IC50 (MLP15 [4]) | Hill Slope (MLP15 [4]) | ΔH (THS2 [7]) [kcal/mol] | ΔS (THS2 [7]) [cal/mol/˚K] | N (THS2 [7]) | other results |
| --- | --- | --- | --- | --- | --- | --- | --- | --- | --- | --- | --- | --- | --- | --- | --- | --- | --- | --- | --- | --- | --- |
| COc1ccc2c(c1OC)C(=O)O[C@@H]2[C@H]1c2c(cc3c(c2OC)OCO3)CCN1C [Noscapine, noscapine] | 56.7 | 66 µM and 66.1 µM | 1.82 ± 0.07 | -5.05 ± 6.55 | ~40.4 | ~ 1.61 ± 0.07 | ~29.9 | ~126 | ~ 2.102 ± 0.59 | ~116 | ~4.18 | ~ 0.62 ± 0.17 | ~4.07 | 37.8 | 43 µM and 42.6 µM | 1.63 ± 0.04 | -1.18 ± 0.10 |  |  |  | Kd (THS2 [2]): ~9.66 µM; IC50 (THS2 [2]; IC50, THS2, 10 µM protein and 10 µM ANS, CBS pH 5.5): 14 µM and ~14.3 µM; Log10IC50 (THS2 [2]; THS2, 10 µM protein and 10 µM ANS, CBS pH 5.5): ~ 1.16 ± 0.48; Hill Slope (THS2 [2]; THS2, ANS displacement dose-response fit): ~ -1.13 ± 0.78; endothermic positive peaks during the initial injections (MLP15 [5]): > 0.2 µcal/s; exothermic heat-change plateau of the final injections (MLP15 [5]): -0.48 µcal/s; solubility [6]: 1100 µM (≈ 455 µg/mL) |
| COc1ccc2c3c1O[C@H]1[C@@H](O)C=C[C@H]4[C@@H](C2)N(C)CC[C@@]341 [Codeine, codeine] | 24.2 | 28 µM and 28.2 µM | 1.45 ± 0.13 | -0.72 ± 0.13 | 203 | 2.31 ± 0.14 | 151 |  |  |  | 1500 | 3.18 ± 0.36 | 1460 | 931 | 1050 µM | 3.02 ± 0.17 | -0.97 ± 0.13 | 1.868 ± 0.0686 | 27.2 | 0.51 ± 0.0145 | Hill Slope (PR10-10): ~ 0.13 ± 0.35; Kd (THS2 [7]): 26 µM and 26.5 µM; ΔH (NISO [8]): -3.556 ± 0.02607 kcal/mol; ΔS (NISO [8]): 13.9 cal/mol/˚K; N (NISO [8]): 1.07 ± 0.00547; Kd (NISO [8]): 2 µM and 2.22 µM; Kd (PR10-12 [9]): 140 ± 13.6 µM; Kd (PR10-12 [9]; listed as codeine): 140 µM |
| COC1=CC=C2[C@H]3Cc4ccc(OC)c5c4[C@@]2(CCN3C)[C@H]1O5 [Thebaine, thebaine] | 171 | 199 µM and 200 µM | 2.30 ± 0.14 | 0.92 ± 0.16 | 394 | 2.60 ± 0.20 | 292 | 2570 | 3.41 ± 1.42 | 2350 | 445 | 2.65 ± 0.21 | 432 | 612 | 690 µM | 2.84 ± 0.23 | -1.05 ± 0.19 | 2.45 ± 0.09784 | 28.8 | 0.523 ± 0.0156 | Kd (THS2 [7]): 31 µM and 31.2 µM; ΔH (NISO [8]): -2.396 ± 0.1109 kcal/mol; ΔS (NISO [8]): 13.6 cal/mol/˚K; N (NISO [8]): 0.786 ± 0.0251; Kd (NISO [8]): 18 µM and 18.2 µM; Kd (PR10-12 [9]): 21.6 ± 0.71 µM; Kd (PR10-12 [9]; listed as thebaine): 22 µM |
